US5359076A, “Cyclic aminophenylacetic acid derivatives, process for preparing the same and immune response modulator having the same as an effective ingredient” (Kyorin Pharmaceutical Co., Ltd., priority 1991, dated 1994)
Counter-ions that a name gives are not always drawn.

Legend:
vascular permeability = experiment: Inhibitory effect on vascular permeability (acetic acid, Evans Blue, mice); assay type: in vivo, male ddY-strain mice; details: 100 mg/kg, p.o.
Method: Male ddY-strain mice were orally administered with the compound of examples in 5% arabic gum suspension. After 45 minutes, 1% Evans Blue dissolved in saline (0.1 ml/10 g body weight) was injected into tail vein, and immediately, 1% of acetic acid diluted in saline (0.1 ml/10 g body weight) was injected into peritoneal cavity. Thirty minutes later, each mouse was sacrificed and peritoneal cavity was washed with saline (2 ml/10 g body weight). Peritoneal exuded fluid was collected and centrifuged at 3,000 rpm for 10 minutes. The optical density of supernatant was read at 630 nm. The volume of Evans Blue was determined from the calibration curve and the inhibition ratio was calculated.

adjuvant arthritis = experiment: Therapeutic effect on the adjuvant arthritis in rats (swelling of non-injected hind paw); assay type: in vivo, female SD-strain rats; details: oral
Method: Heat-killed Mycobacterium butyricum (0.6 mg/rat) suspended in liquid paraffin was injected intradermally into right hind paw of female SD-strain rats. Test compounds suspended in 0.3% CMC solution were administered orally once a day for 7 days from 14 days to 20 days after the injection of adjuvant. The swelling of non-injected hind paw was measured by the water displacement method.

[1] = tested on: IgM antibody-producing cells; experiment: Effect on IgM antibody-producing cells in vitro (Jerne method); assay type: cell-based, BDF1-strain mice; details: n 6; for IgM-PFC/culture (mean ± S.E.): reference 82 ± 15, *p < 0.01 (Dunnett's test)
Method: The spleen cells of BDF1 -strain mice were isolated by finely mincing the spleen, centrifuged, and suspended in medium (RPMI-1640+10% FCS). Each 50 μl of spleen cell suspension (2×10^7 cells/ml) and sheep erythrocyte suspension (1×10^7 cells/ml) was spread on a 96-well plate. Test compounds were dissolved in DMSO and diluted in medium. Then, 100 μl of medium containing test compounds were added to the 96-well plate. After the plate was incubated at 37° C. for 5 days in 5% CO2 incubator, the number of IgM antibody-producing cells was counted by Jerne method.

[2] = tested on: IgM antibody-producing cells; experiment: Effect on IgM antibody-producing cells in vivo (Jerne method); set-up: species or system BALB/c-strain mice; details: 12.5 mg/kg/day, oral 4 days, n 7
Method: To a BALB/c-strain mice were intraperitoneally injected with 5×10^8 /0.1 ml of sheep erythrocytes. The test compound was administered orally once a day for 4 days since the erythrocyte injection. On the next day of final administration, the spleen cells were isolated by finely mincing the spleen, centrifuged and suspended in medium (RPMI-1640+10% FCS). The number of IgM antibody-producing cells was counted by Jerne method.

[3] = 25 mg/kg/day, 18 Days after adjuvant
[4] = 25 mg/kg/day, 21 Days after adjuvant
[5] = 25 mg/kg/day, 27 Days after adjuvant
[6] = 50 mg/kg/day, 18 Days after adjuvant
[7] = 50 mg/kg/day, 21 Days after adjuvant
[8] = 50 mg/kg/day, 27 Days after adjuvant

Compound: CCOC(=O)Cc1cc(Cl)c2c(c1)CCC(c1ccccc1F)N2 (stereo not drawn) [Example 4, Ethyl 8-chloro-2-(2-fluorophenyl)-1,2,3,4-tetrahydroquinoline-6-acetate]
- Inhibition ratio (vascular permeability) (vascular permeability): 33.1%

Compound: O=C(O)Cc1cc(Cl)c2c(c1)CCC(c1ccccc1F)N2 (stereo not drawn) [Example 7, 8-Chloro-2-(2-fluorophenyl)-1,2,3,4-tetrahydroquinoline-6-acetic acid]
- Inhibition ratio (vascular permeability) (vascular permeability): 51.1%
- Inhibition ratio of swelling (adjuvant arthritis; [3]): 6%
- Inhibition ratio of swelling (adjuvant arthritis; [4]): 19%
- Inhibition ratio of swelling (adjuvant arthritis; [5]): 33%
- Inhibition ratio of swelling (adjuvant arthritis; [6]): 36%
- Inhibition ratio of swelling (adjuvant arthritis; [7]): 52%
- Inhibition ratio of swelling (adjuvant arthritis; [8]): 50%
- Inhibition ratio of swelling (adjuvant arthritis; 100 mg/kg/day, 18 Days after adjuvant): 59%
- Inhibition ratio of swelling (adjuvant arthritis; 100 mg/kg/day, 21 Days after adjuvant): 64%
- Inhibition ratio of swelling (adjuvant arthritis; 100 mg/kg/day, 27 Days after adjuvant): 64%

Compound: O=C(O)Cc1cc(Cl)c2c(c1)CCC(c1ccccc1)N2 (stereo not drawn) [Example 8, 8-Chloro-2-phenyl-1,2,3,4-tetrahydroquinoline-6-acetic acid]
- Inhibition ratio (vascular permeability) (vascular permeability): 50.0%

Compound: COc1ccc(C2CCc3cc(CC(=O)O)cc(Cl)c3N2)cc1 (stereo not drawn) [Example 9, 8-Chloro-2-(4-methoxyphenyl)-1,2,3,4-tetrahydroquinoline-6-acetic acid]
- Inhibition ratio (vascular permeability) (vascular permeability): 16.0%

Compound: CN1c2ccc(CC(=O)O)cc2CCC1c1ccccc1 (stereo not drawn) [Example 11, 1-Methyl-2-phenyl-1,2,3,4-tetrahydroquinoline-6-acetic acid]
- Inhibition ratio (vascular permeability) (vascular permeability): 42.7%

Compound: CN1c2c(Cl)cc(CC(=O)O)cc2CCC1c1ccccc1 (stereo not drawn) [Example 12, 8-Chloro-1-methyl-2-phenyl-1,2,3,4-tetrahydroquinoline-6-acetic acid]
- Inhibition ratio (vascular permeability) (vascular permeability): 52.7%

Compound: O=C(O)Cc1cc(Cl)c2c(c1)CCC(C(F)(F)F)N2 (stereo not drawn) [Example 15, 8-Chloro-1,2,3,4-tetrahydro-2-trifluoromethylquinoline-6-acetic acid]
- IgM-PFC/culture (mean ± S.E.) ([1]; 2 × 10^-6 M): 24 ± 3 IgM-PFC/culture
- IgM-PFC/culture (mean ± S.E.) ([1]; 5 × 10^-5 M): 31 ± 9 IgM-PFC/culture
- inhibition at 2 µM ([1]; Mus musculus, 120 h, 2 × 10^-6 M, read-out: Inhibition ratio (IgM-PFC in vitro)): 71%
- inhibition at 50 µM ([1]; Mus musculus, 120 h, 5 × 10^-5 M, read-out: Inhibition ratio (IgM-PFC in vitro)): 62%
- Inhibition ratio (vascular permeability) (vascular permeability): 29.1%
- Inhibition ratio of swelling (adjuvant arthritis; 12.5 mg/kg/day, 18 Days after adjuvant): 21%
- Inhibition ratio of swelling (adjuvant arthritis; 12.5 mg/kg/day, 21 Days after adjuvant): 36%
- Inhibition ratio of swelling (adjuvant arthritis; 12.5 mg/kg/day, 27 Days after adjuvant): 50%
- Inhibition ratio of swelling (adjuvant arthritis; [3]): 39%
- Inhibition ratio of swelling (adjuvant arthritis; [4]): 45%
- Inhibition ratio of swelling (adjuvant arthritis; [5]): 52%
- Inhibition ratio of swelling (adjuvant arthritis; [6]): 39%
- Inhibition ratio of swelling (adjuvant arthritis; [7]): 56%
- Inhibition ratio of swelling (adjuvant arthritis; [8]): 58%
- Inhibition ratio (IgM-PFC in vivo) [2]: 35%
- IgM-PFC/spleen (× 10^2) (mean ± S.E.) ([2]; reference 995 ± 55, *p < 0.05 (Dunnett's test)): 651 ± 49 IgM-PFC/spleen (× 10^2)

Compound: O=C(O)Cc1ccc2c(c1)CCC(C(F)(F)F)N2 (stereo not drawn) [Example 16, 1,2,3,4-Tetrahydro-2-trifluoromethylquinoline-6-acetic acid]
- Inhibition ratio (vascular permeability) (vascular permeability): 37.3%

Compound: O=C(O)Cc1cc(Br)c2c(c1)CCC(C(F)(F)F)N2 (stereo not drawn) [Example 23, 8-Bromo-1,2,3,4-tetrahydro-2-trifluoromethylquinoline-6-acetic acid]
- Inhibition ratio (vascular permeability) (vascular permeability): 38.6%

Compound: N#Cc1cc(CC(=O)O)cc2c1NC(C(F)(F)F)CC2 (stereo not drawn) [Example 24, 8-Cyano-1,2,3,4-tetrahydro-2-trifluoromethylquinoline-6-acetic acid]
- Inhibition ratio (vascular permeability) (vascular permeability): 25.9%

Compound: O=C(O)Cc1cc2c(c(-c3ccccc3)c1)NC(C(F)(F)F)CC2 (stereo not drawn) [Example 27, 8-Phenyl-1,2,3,4-tetrahydro-2-trifluoromethylquinoline-6-acetic acid]
- Inhibition ratio (vascular permeability) (vascular permeability): 27.0%

Compound: CC(=O)c1cc(CC(=O)O)cc2c1NC(C(F)(F)F)CC2 (stereo not drawn) [Example 28, 8-Acetyl-1,2,3,4-tetrahydro-2-trifluoromethylquinoline-6-acetic acid]
- Inhibition ratio (vascular permeability) (vascular permeability): 16.7%

Compound: CSc1cc(CC(=O)O)cc2c1NC(C(F)(F)F)CC2 (stereo not drawn) [Example 29, 8-Methylthio-1,2,3,4-tetrahydro-2-trifluoromethylquinoline-6-acetic acid]
- Inhibition ratio (vascular permeability) (vascular permeability): 18.4%

Compound: O=C(O)Cc1cc2c(c(C(=O)c3ccccc3)c1)NC(C(F)(F)F)CC2 (stereo not drawn) [Example 32, Sodium salt of 8-benzoyl-1,2,3,4-tetrahydro-2-trifluoromethylquinoline-6-acetic acid]
- Inhibition ratio (vascular permeability) (vascular permeability): 19.7%

Compound: O=C(O)Cc1cc2c(c([N+](=O)[O-])c1)NC(C(F)(F)F)CC2 (stereo not drawn) [Example 33, 8-Nitro-1,2,3,4-tetrahydro-2-trifluoromethylquinoline-6-acetic acid]
- Inhibition ratio (vascular permeability) (vascular permeability): 25.4%
